From PubChem BioAssay (NCI)
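Cells were grown in 96-well plates and exposed to each compound for 48 hours at five concentrations; endpoints were interpolated linearly between bracketing concentrations, or set to the highest concentration if not reached. Here, GI50 denotes the concentration required for 50% inhibition of growth. TGI marks complete inhibition of growth.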

Legend:
Assay in all cases: inhibition of tumour cell growth, NCI panel, 48 h
[1] = system: A498 renal
[2] = system: HCC-2998 colon
[3] = system: HOP-62 NSCLC
[4] = system: HS 578T breast
[5] = system: K-562 leukemia
[6] = system: NCI-H226 lung
[7] = system: NCI-H460 lung
[8] = system: NCI/ADR-RES ovarian
[9] = system: OVCAR-5 ovarian
[10] = system: SF-268 CNS
[11] = system: SF-295 CNS
[12] = system: SF-539 CNS
[13] = system: SK-MEL-2 melanoma
[14] = system: SK-MEL-28 melanoma
[15] = system: U251 CNS
[16] = system: UO-31 renal

`O=c1[nH]c2cccc([N+](=O)[O-])c2c(=O)n1-c1ccc(Cl)cc1` showed a TGI [1] of 30.6 µM, a TGI [2] of 31.4 µM and a TGI [3] of 61 µM. For the same molecule, the TGI [4] was 42 µM, the TGI [5] was 34.9 µM and the TGI [6] was 30.1 µM. For the same molecule, the TGI [7] was 25.8 µM, the TGI [8] was 43.6 µM and the TGI [9] was 36.5 µM. It also gave a TGI [10] of 30.4 µM, a TGI [11] of 12.2 µM and a TGI [12] of 26.2 µM. It also gave a TGI [13] of 25.6 µM, a TGI [14] of 26.8 µM and a TGI [15] of 59.7 µM.
`CN1CCCC2C(c3ccccc3)C(C3=NCCCC3)C(c3ccccc3)CC21` (stereo not given) was tested, and the TGI [1] was greater than 100 µM, the TGI [2] was 31.4 µM and the TGI [3] was greater than 100 µM. It also gave a TGI [4] of 96.7 µM, a TGI [5] of 37.6 µM and a TGI [6] greater than 100 µM. It also gave a TGI [7] greater than 100 µM, a TGI [8] greater than 100 µM and a TGI [9] greater than 100 µM. It also gave a TGI [10] greater than 100 µM, a TGI [11] greater than 100 µM and a TGI [12] of 31.3 µM. The TGI [13] was greater than 100 µM, the TGI [14] was 36.2 µM and the TGI [15] was greater than 100 µM.
Molecule `Cn1c(-c2cccs2)cc(-c2cccs2)c1-c1cccs1` has a TGI [1] greater than 100 µM, a TGI [2] greater than 100 µM and a TGI [3] greater than 100 µM. For the same molecule, the TGI [4] was greater than 100 µM, the TGI [5] was greater than 100 µM and the TGI [6] was greater than 100 µM. The TGI [7] was greater than 100 µM, the TGI [8] was greater than 100 µM and the TGI [9] was greater than 100 µM. The TGI [10] was greater than 100 µM, the TGI [11] was greater than 100 µM and the TGI [12] was greater than 100 µM. For the same molecule, the TGI [13] was greater than 100 µM, the TGI [14] was greater than 100 µM and the TGI [15] was greater than 100 µM. It also gave a TGI [16] greater than 100 µM.
For `COc1ccc(NC(=S)Nc2cc(C)ccn2)cc1`, the TGI [1] was greater than 100 µM, the TGI [2] was greater than 100 µM and the TGI [3] was greater than 100 µM. It also gave a TGI [4] greater than 100 µM, a TGI [5] greater than 100 µM and a TGI [6] greater than 100 µM. The TGI [7] was greater than 100 µM, the TGI [8] was greater than 100 µM and the TGI [10] was greater than 100 µM. The TGI [12] was greater than 100 µM, the TGI [13] was greater than 100 µM and the TGI [14] was greater than 100 µM. The TGI [15] was greater than 100 µM and the TGI [16] was greater than 100 µM.
`Cc1cc(S(=O)(=O)Nc2nc(N)nc(N3N=CCC3C)n2)c(SCC(=O)O)cc1Cl` (stereo not given) showed a TGI [1] greater than 10 µM, a TGI [2] greater than 10 µM and a TGI [3] greater than 10 µM. It also gave a TGI [4] greater than 10 µM, a TGI [5] greater than 10 µM and a TGI [6] greater than 10 µM. For the same molecule, the TGI [7] was greater than 10 µM, the TGI [8] was greater than 10 µM and the TGI [9] was greater than 10 µM. It also gave a TGI [10] greater than 10 µM, a TGI [11] greater than 10 µM and a TGI [12] greater than 10 µM. The TGI [13] was greater than 10 µM, the TGI [14] was greater than 10 µM and the TGI [15] was greater than 10 µM.
In the case of `COc1cc2c(/C=C3/C(=O)Nc4ccc(O)cc43)c(Cl)n(Cc3ccccc3)c2cc1C`, the GI50 [1] is reported as 6.26 µM, the TGI [1] is reported as greater than 100 µM and the GI50 [2] is reported as 0.201 µM. It also gave a TGI [2] of 0.799 µM, a GI50 [3] of 0.403 µM and a TGI [3] of 9.39 µM. For the same molecule, the TGI [4] was 3.36 µM, the TGI [5] was greater than 100 µM and the TGI [6] was 15.5 µM. It also gave a TGI [7] greater than 43.4 µM, a TGI [8] of 2.6 µM and a TGI [9] of 14.5 µM. The TGI [10] was 24.9 µM, the TGI [11] was 3.91 µM and the TGI [12] was 3.8 µM. It also gave a TGI [13] greater than 100 µM, a TGI [14] of 44.1 µM and a TGI [15] greater than 42.4 µM. It also gave a TGI [16] greater than 100 µM.
`COC(=O)C1C2OC(C)(C)OC2CN1S(=O)(=O)c1ccc(C)cc1` (stereo not given) gave a TGI [1] greater than 100 µM, a TGI [2] greater than 100 µM and a TGI [3] greater than 100 µM. It also gave a TGI [4] greater than 100 µM, a TGI [5] greater than 100 µM and a TGI [6] of 41.1 µM. It also gave a TGI [7] greater than 100 µM, a TGI [8] greater than 100 µM and a TGI [9] greater than 100 µM. It also gave a TGI [10] greater than 100 µM, a TGI [11] greater than 100 µM and a TGI [12] greater than 100 µM. The TGI [13] was greater than 100 µM, the TGI [14] was greater than 100 µM and the TGI [15] was greater than 100 µM. For the same molecule, the TGI [16] was greater than 100 µM.
